{
  "source": "patent US8357659B2",
  "about": "“Method of treating pain or itching with APETx2 peptide toxin” (priority 2008, dated 2013)",
  "key": {"[1]": {"tested_on": "ASIC type current of cutaneous neurons of the spinal ganglia", "test": "Whole cell patch clamp of native ASIC currents in cutaneous neurons of the spinal ganglia", "assay_type": "cell-based, rat", "settings": "pH 6.6; FIG. 1C", "method": "The neurons of the dorsal root ganglion (spinal ganglia or DRG) innervating the skin were labelled by subcutaneous injections of 5×1 μl of Dil fluorescent dye (5% DMSO, Molecular Probes) in the dorsal side of the rats' hind paws. The dye was injected two weeks before the rats were sacrificed in order to prepare a primary culture of dorsal root ganglion.\nThe lumbar dorsal root ganglia L3-L6 of Wistar rats (8-11 weeks) were dissected bilaterally and separated enzymatically with 0.1% collagenase. The cells were subsequently plated on 35 mm Petri dishes covered with collagen and cultured at 37° C. (95% air/5% CO2) in DMEM medium containing 5% of foetal calf serum. The electrophysiological experiments were performed 1 to 8 days after seeding.\nThe whole cell configuration of the patch clamp method was used ([ref. 48]) in order to measure the membrane currents (imposed voltage) or the membrane potentials (imposed current). The recordings were performed at ambient temperature using an RK-400 amplifier (Bio-Logic Science Instruments) with a 3 kHz low-pass filter (Krohn-Hite). The data were sampled at 10 kHz, digitised using a Digidata 1322A A-D/D-A converter (Axon Instruments) and recorded on a hard disk using pClamp software (version 9.2.0.11, Axon Instruments). The recording probes (1-4 MOhms) contained (in mM): 135 KCl, 2.5 Na2-ATP, 2 MgCl2, 2.1 CaCl2, 5 EGTA, 10 HEPES (pH 7.25 with KOH). Various different buffers and drugs of interest were added to the transfected cells considered individually using an internally developed microinfusion system controlled by microelectrovalves (Sirai, Italy) allowing rapid changes of solution. The control bath solution contained (in mM): 145 NaCl, 5 KCl, 2 MgCl2, 2 CaCl2, 10 HEPES (pH 7.4 with NaOH). The MES medium was used instead of the HEPES medium in order to buffer the solution at a pH ranging from 6 to 5, and the ASIC currents were induced by rapid changes of a control solution at pH 7.4 to an acid test solution using the microinfusion system. For the experiments conducted on the DRG neurons, glucose (10 mM) was added to the control bath solution. Hypertonic conditions were obtained by adding mannitol or sucrose to the external bath solutions, as indicated in the text."}, "[2]": {"tested_on": "cutaneous pain induced by moderate acidification", "test": "Nociceptive behaviour in rats after subcutaneous injection of moderately acidic solutions", "assay_type": "in vivo, rat", "settings": "FIG. 5A", "method": "Adult (7-8 weeks' old) male Wistar rats (Charles River, France) were placed in plastic cages with a nyctohemeral period of 12 h (with light between 8 a.m. and 8 p.m.) and with free access to food and water. The rats were left to acclimatize for at least one week before the experiments. For the behavioural experiments, the rats were placed in a transparent observation chamber where they were acclimatized for 20-30 minutes. They were subsequently immobilised while 20 μl of saline solution (0.9% or 2% of NaCl+20 mM of HEPES, […] or 60 nM of PcTx1 toxin), was administered subcutaneously to the dorsal side of the right hind paw using a 30G needle connected to a 100 μl Hamilton syringe. The nociceptive behaviour (i.e. the number of hind leg quiverings) was recorded over a 5-minute period, starting immediately after the injection ([ref. 59])."}, "[3]": {"target": "T1, ASIC3 (Rattus norvegicus, UniProt O35240)", "T1 sequence (O35240 1-533)": "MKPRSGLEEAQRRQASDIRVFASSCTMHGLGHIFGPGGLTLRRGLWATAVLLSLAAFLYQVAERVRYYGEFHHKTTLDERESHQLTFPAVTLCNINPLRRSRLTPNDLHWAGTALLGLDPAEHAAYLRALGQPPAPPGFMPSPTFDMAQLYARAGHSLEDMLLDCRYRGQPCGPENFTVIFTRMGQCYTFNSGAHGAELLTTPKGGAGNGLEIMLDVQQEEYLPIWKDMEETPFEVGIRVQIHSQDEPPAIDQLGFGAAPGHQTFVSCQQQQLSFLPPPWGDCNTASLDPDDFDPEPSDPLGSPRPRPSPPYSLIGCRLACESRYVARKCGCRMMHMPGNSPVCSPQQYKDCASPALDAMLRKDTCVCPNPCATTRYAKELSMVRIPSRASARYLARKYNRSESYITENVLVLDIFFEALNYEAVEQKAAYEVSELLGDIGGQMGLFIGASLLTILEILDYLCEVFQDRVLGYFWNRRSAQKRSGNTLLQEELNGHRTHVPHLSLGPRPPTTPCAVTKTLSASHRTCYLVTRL", "settings": "cited from earlier work"}, "[4]": {"target": "T2, ASIC2a (Rattus norvegicus, UniProt Q62962)", "T2 sequence (Q62962 1-512)": "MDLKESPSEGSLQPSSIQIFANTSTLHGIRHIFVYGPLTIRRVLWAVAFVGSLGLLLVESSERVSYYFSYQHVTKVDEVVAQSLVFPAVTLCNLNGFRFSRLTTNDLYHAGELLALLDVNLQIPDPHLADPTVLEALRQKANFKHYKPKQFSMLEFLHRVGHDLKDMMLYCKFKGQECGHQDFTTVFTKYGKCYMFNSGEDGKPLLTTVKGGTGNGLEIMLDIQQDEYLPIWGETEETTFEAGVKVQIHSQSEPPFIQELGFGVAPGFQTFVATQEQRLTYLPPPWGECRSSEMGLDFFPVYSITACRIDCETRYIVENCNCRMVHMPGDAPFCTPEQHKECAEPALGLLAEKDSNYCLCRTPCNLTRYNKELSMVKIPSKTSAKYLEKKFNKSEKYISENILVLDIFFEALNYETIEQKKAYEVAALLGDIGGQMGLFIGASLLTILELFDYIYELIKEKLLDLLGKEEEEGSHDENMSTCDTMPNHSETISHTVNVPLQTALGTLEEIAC", "settings": "cited from earlier work"}},
  "data": [
    {"substance": "peptide of 42 amino acids (SEQ ID NO: 3), three disulphide bonds, from sea anemone Anthopleura elegantissima; blocks ASIC3 [APETx2]", "values": [
      {"measurement": "sensitivity of the native ASIC currents to the toxin", "setting": "[1]", "value": "partial sensitivity"},
      {"measurement": "behaviour in response to acid pain with inflammatory signals", "setting": "[2]; pH 6.9 + 2% NaCl + AA, 10 μM APETx2 or 60 nM PcTx1 in injected solution", "value": "markedly reduced"},
      {"measurement": "pain behaviour after subcutaneous injection of acidic solution", "setting": "[2]; pH 6.9, 10 μM APETx2 in injected solution", "value": "suppressed"},
      {"measurement": "effect on the ASIC3 sustained current", "setting": "[3]; sustained current", "value": "without affecting"},
      {"measurement": "IC50", "setting": "[3]; transient current, reversible block, read-out: IC50 for inhibition of the ASIC3 transient current", "value": 63, "unit": "nM"},
      {"measurement": "effect on ASIC2a isoform", "setting": "[4]", "value": "does not have any effect"}
    ]}
  ]
}
